According to PubChem BioAssay (NCI):
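Five concentrations, 48 hours, 96-well plates. TGI is the concentration that stops growth completely.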

Assays:
Experiment in all cases: NCI anticancer screen, dose series, 48 h
A498 renal = tested on: A498 renal
COLO 205 colon = tested on: COLO 205 colon
HL-60(TB) leukemia = tested on: HL-60(TB) leukemia
HT29 colon = tested on: HT29 colon
NCI-H226 lung = tested on: NCI-H226 lung
NCI-H23 lung = tested on: NCI-H23 lung
NCI/ADR-RES ovarian = tested on: NCI/ADR-RES ovarian
OVCAR-3 ovarian = tested on: OVCAR-3 ovarian
OVCAR-5 ovarian = tested on: OVCAR-5 ovarian
SF-295 CNS = tested on: SF-295 CNS
SK-MEL-2 melanoma = tested on: SK-MEL-2 melanoma
T-47D breast = tested on: T-47D breast
TK-10 renal = tested on: TK-10 renal
HS 578T breast = tested on: HS 578T breast
SNB-75 CNS = tested on: SNB-75 CNS
MALME-3M melanoma = tested on: MALME-3M melanoma
RXF 393 renal = tested on: RXF 393 renal

| SMILES | TGI (A498 renal) [µM] | TGI (COLO 205 colon) [µM] | TGI (HL-60(TB) leukemia) [µM] | TGI (HT29 colon) [µM] | TGI (NCI-H226 lung) [µM] | TGI (NCI-H23 lung) [µM] | TGI (NCI/ADR-RES ovarian) [µM] | TGI (OVCAR-3 ovarian) [µM] | TGI (OVCAR-5 ovarian) [µM] | TGI (SF-295 CNS) [µM] | TGI (SK-MEL-2 melanoma) [µM] | TGI (T-47D breast) [µM] | TGI (TK-10 renal) [µM] | TGI (HS 578T breast) [µM] | TGI (SNB-75 CNS) [µM] | TGI (MALME-3M melanoma) [µM] | TGI (RXF 393 renal) [µM] |
| --- | --- | --- | --- | --- | --- | --- | --- | --- | --- | --- | --- | --- | --- | --- | --- | --- | --- |
| N#CC(O)CCOCc1ccccc1 (centres undefined) | > 100 | > 100 | > 100 | > 100 | > 100 | > 100 | > 100 | > 100 | > 100 | > 100 | > 100 | > 100 | > 100 |  |  |  |  |
| Cc1csc2nc(-c3cccc([N+](=O)[O-])c3)c(/C=N/N=C(N)N)n12 | 2.92 | 3 | 2.26 | 3.27 |  | 3.49 | 36.3 | 4.24 | 2.98 | 3.12 | 3.42 | 8.06 | 3.17 | 3.45 | 3.16 |  |  |
| Oc1ccc(Br)cc1C=Nc1c(NC2CCCCC2)oc2ccc(Br)cc12 | > 100 |  | 21.8 | 78.4 | > 100 | 56 | > 100 | 68.6 | > 100 | > 100 |  | > 100 | > 100 |  | 79.5 | > 100 | 27.1 |
| COc1cc([C@@H]2c3cc4c(cc3[C@@H](NCc3ccccc3F)C3COC(=O)[C@@H]32)OCO4)cc(OC)c1O (some centres undefined) | 19.7 | 77.4 | 4.26 | 25.5 | 7.52 | 7.5 |  | 40.9 | 78.4 | > 100 | 49.8 |  | 81.4 |  | 42.6 | 28.3 | 54.7 |
| COc1cccc([C@@H]2C/C(=N\NC(=O)C(=O)N[C@@H](C)c3ccccc3)c3ccccc3N2)c1 | > 100 | > 100 |  |  | > 100 |  | > 100 | > 100 | > 100 | > 100 | > 100 | > 100 | > 100 | > 100 | > 100 |  | > 100 |
| COc1ccc2c(=O)c3ccoc3[nH]c2c1 | > 100 | > 100 | > 100 | > 100 | > 100 | > 100 | > 100 |  |  | > 100 | > 100 | > 100 | > 100 | > 100 | > 100 |  | > 100 |
| NC(=O)N/N=C(\CC1OC(=O)c2ccccc21)c1ccc([N+](=O)[O-])cc1 (centres undefined) | > 100 | > 100 | > 100 | > 100 |  |  |  | > 100 |  | > 100 | 35.4 |  | > 100 |  | 78.6 | 73.7 | 28.9 |
| Cc1ccc(S(=O)(=O)N(CCN)c2cc3c4c(c2)Oc2cccc5c2C4c2c(cccc2O3)O5)cc1 | > 100 | 57.9 |  | 28.6 | 24.8 | > 100 | 22.5 | 42.2 | 62.1 | 54.5 | 47.7 |  | > 100 | 38.2 | 25.1 | 22.2 |  |
| CC(=O)NC(CCCCNCc1ccccc1)C(=O)NCc1ccccc1 (centres undefined) | > 100 | > 100 |  | > 100 | > 100 | > 100 |  | > 100 | > 100 | > 100 | > 100 |  | > 100 |  | > 100 | > 100 | > 100 |
| O=c1c2ccccc2n2c(-c3ccccc3O)nnc2n1-c1ccccc1 | > 100 | > 100 | > 100 | > 100 | > 100 | > 100 | > 100 | > 100 | > 100 | > 100 | > 100 | > 100 | > 100 |  | > 100 | > 100 | > 100 |
| CCN(CC)CCCNc1ccc([N+](=O)[O-])c2nc3ccccc3c(N)c12 | 9.95 |  | 2.92 | 1.81 | > 10 | 2.76 | 2.65 | 8.75 | 3.43 | 1.87 | 2.53 |  | > 10 | 1.91 | 2.42 | > 10 | 1.52 |
| COC(=O)C(Cc1nc2ccc(Cl)cc2[nH]c1=O)C(=O)C(=O)Nc1cc(C)ccc1C (centres undefined) | > 100 | > 100 | > 100 | > 100 | > 100 | > 100 |  | > 100 | > 100 | > 100 | > 100 |  | > 100 |  | > 100 | > 100 | > 100 |
| CC(=O)NC1=NC(=O)/C(=C/c2ccccc2Cl)N1C |  | > 100 | > 100 | > 100 | > 100 | > 100 | > 100 | > 100 | > 100 | > 100 | > 100 |  | > 100 | > 100 | > 100 |  | > 100 |
| COc1c(Sc2c(SCSc3cnc4ccccc4c3Sc3cnc4ccccc4c3OC)cnc3ccccc23)cnc2ccccc12 |  | > 100 | 26.3 | > 100 |  | > 100 | > 100 | > 100 | > 100 | > 100 | > 100 | > 100 | > 100 | > 100 | > 100 |  |  |
| CC1(C)CN(CC(=O)O)CC(Cc2ccc(OCC(=O)O)cc2)N(CC(=O)O)CC(C)(C)SS1 (centres undefined) | > 100 | > 100 |  | > 100 | > 100 | > 100 | > 100 | > 100 | > 100 | > 100 | > 100 |  | > 100 | > 100 | > 100 | > 100 | > 100 |
| N#CC(NNC(=O)Cc1ccccc1)c1ccc([N+](=O)[O-])cc1 (centres undefined) |  | > 100 | > 100 | > 100 | > 100 | > 100 |  |  | > 100 | > 100 | > 100 |  | > 100 |  | > 100 | > 100 | > 100 |
